Measured values published in patent US20110152090A1, “HERBICIDAL COMPOSITIONS COMPRISING FLUFENACET” (Bayer CropScience AG, priority 2009, published 2011).

Experiments:
Format in all cases: in vivo
[1] = test system: POAAN (Poa annua); test: Greenhouse trial: PE soil application vs incorporation into the soil (test methods 1, 3); conditions: g of AS/ha: (A) 90, (B) 1200, (C) 90, (D) 300
Procedure: (§1) In the standard design of the test, seeds of various broad-leaved weed and weed grass biotypes (origins) were sown in a 8-13 cm diameter pot filled with natural soil of a standard field soil (loamy silt; non-sterile) and covered with a covering soil layer of about 1 cm. The pots were then cultivated in a greenhouse (12-16 h of light, temperature day 20-22° C., night 15-18° C.) until the time of application. The pots were treated on a laboratory track sprayer with spray liquors comprising the compositions according to the invention, mixtures of the prior art or components used individually. Application of the active compounds or active compound combinations formulated as WG, WP, EC or otherwise was carried out at the appropriate growth stages of the plants. The application rate for the spray application was 100-600 l of water/ha. After the treatment, the plants were returned to the greenhouses.
(§2) About 3 weeks after the application, the soil action or/and foliar action was assessed visually according to a scale of 0-100% in comparison to an untreated comparative group: 0%=no noticeable effect compared to the untreated comparative group; 100%=full effect compared to the untreated comparative group.
(§3) (notes: the term “seeds” also includes vegetative propagation forms such as, for example, rhizome pieces; abbreviations used: h light=hours of illumination, g of AS/ha=gram of active substance per hectare, l/ha=liter per hectare, S=sensitive, R=resistant) • 1. Pre-emergence action against weeds: seeds of various broad-leaved weed and weed grass biotypes (origins) were sown in a 8-13 cm diameter pot filled with natural soil of a standard field soil (loamy silt; non-sterile) and covered with a covering soil layer of about 1 cm. The pots were then cultivated in a greenhouse (12-16 h of light, temperature day 20-22° C., night 15-18° C.) until the time of application. The pots were treated at the BBCH stage 00-10 of the seeds/plants on a laboratory track sprayer with spray liquors comprising the compositions according to the invention, mixtures or components used individually, as WG, WP, EC or other formulations. The application rate for the spray application was 100-600 l of water/ha. After the treatment, the plants were returned to the greenhouses and, when required, treated with fertilizer and watered. • 2. Post-emergence action against weeds: seeds of various broad-leaved weed and weed grass biotypes (origins) were sown in a 8-13 cm diameter pot filled with natural soil of a standard field soil (loamy silt; non-sterile) and covered with a covering soil layer of about 1 cm. The pots were then cultivated in a greenhouse (12-16 h of light, temperature day 20-22° C., night 15-18° C.) until the time of application. The pots were treated at various BBCH stages between 11-25 of the seeds/plants, i.e. generally between two to three weeks after the start of the cultivation, on a laboratory track sprayer with spray liquors comprising the compositions according to the invention, mixtures or components used individually, as WG, WP, EC or other formulations. The application rate for the spray application was 100-600 l of water/ha. After the treatment, the plants were returned to the greenhouses and, when required, treated with fertilizer and watered. • 3. Pre-emergence action against weeds with and without incorporation of active compound: seeds of various broad-leaved weed and weed grass biotypes (origins) were sown in a 8-13 cm diameter pot filled with natural soil of a standard field soil (loamy silt; non-sterile). […]

[2] = test system: STEME (Stellaria media); test: as above; conditions: g of AS/ha: (A) 90, (B) 1200, (C) 90, (D) 300
Procedure: as §1, §2, §3

[3] = test system: APESV (Apera Spica-venti); test: Greenhouse trial: PO application (test method 2); conditions: g of AS/ha: (A) 120, (B) 1600, (C) 120
Procedure: as §1, §2, §3

[4] = test system: POAAN (Poa annua); test: Greenhouse trial: PO application (test method 2); conditions: g of AS/ha: (A) 120, (B) 1600, (C) 120
Procedure: as §1, §2, §3

[5] = test system: STEME (Stellaria media); test: Greenhouse trial: PO application (test method 2); conditions: g of AS/ha: (A) 120, (B) 1600, (C) 120
Procedure: as §1, §2, §3

[6] = test system: HORVS (Hordeum vulgare, summer barley); test: Greenhouse trial: selective PO action (test method 5); conditions: Hordeum vulgare (summer barley), in vivo, po
Procedure: as §1, §2
(§4) (notes: the term “seeds” also includes vegetative propagation forms such as, for example, rhizome pieces; abbreviations used: h light=hours of illumination, g of AS/ha=gram of active substance per hectare, l/ha=liter per hectare, S=sensitive, R=resistant) • 1. Pre-emergence action against weeds: seeds of various broad-leaved weed and weed grass biotypes (origins) were sown in a 8-13 cm diameter pot filled with natural soil of a standard field soil (loamy silt; non-sterile) and covered with a covering soil layer of about 1 cm. The pots were then cultivated in a greenhouse (12-16 h of light, temperature day 20-22° C., night 15-18° C.) until the time of application. […]

[7] = test system: AVEFA (Avena fatua); test: Greenhouse trial: pre-sowing application vs PE application (test method 6)
Procedure: as §1, §2, §3

[8] = test system: LOLPE (Lolium perenne); test: as above
Procedure: as §1, §2, §3

[9] = test system: HORVS (Hordeum vulgare, summer barley); test: Greenhouse trial: pre-sowing application vs PE application (test method 6), crop, PE part; conditions: Hordeum vulgare (summer barley), in vivo
Procedure: as §1, §2, §4

[10] = test system: TRZAS (Triticum aestivum, summer wheat); test: Greenhouse trial: pre-sowing application vs PE application (test method 6), crop, pre-sowing part; conditions: Triticum aestivum (summer wheat), in vivo
Procedure: as §1, §2, §4

[11] = test system: AVEFA (Avena fatua); test: Greenhouse trial: different irrigation systems (test method 7); conditions: g of AS/ha: (A) 120, (B) 1200, (C) 90
Procedure: as §1, §2, §3

[12] = test system: LOLPE (Lolium perenne); test: as above; conditions: g of AS/ha: (A) 120, (B) 1200, (C) 90
Procedure: as §1, §2, §3

[13] = test system: MATCH (Matricaria chamomilla); test: as above; conditions: g of AS/ha: (A) 120, (B) 1200, (C) 90
Procedure: as §1, §2, §3

[14] = test system: LOLPE (Lolium perenne); test: Greenhouse trial: different soil types (test method 8); conditions: g of AS/ha: (A) 120, (B) 1200, (C) 90
Procedure: as §1, §2, §3

[15] = test system: MATCH (Matricaria chamomilla); test: as above; conditions: g of AS/ha: (A) 120, (B) 1200, (C) 90; for Difference of the soil types, MATCH: IU/EC73 soil vs IU soil
Procedure: as §1, §2, §3

[16] = test system: HORVS (Hordeum vulgare, summer barley); test: Greenhouse trial: different soil types (test method 8), crop; conditions: Hordeum vulgare (summer barley), in vivo
Procedure: as §1, §2, §3

[17] = test system: LOLSS (Lolium species), sensitive and resistant; test: Greenhouse trial: resistant biotypes, PE application (test method 9); conditions: g of AS/ha: (A) 90, (B) 1200, (C) 90, iodosulfuron 10; for activity LOLSS resistant (visual scale 0-100%): resistant biotype; for activity LOLSS sensitive (visual scale 0-100%): sensitive biotype
Procedure: as §1, §2, §3

[18] = test system: MATCH (Matricaria chamomilla), sensitive and resistant; test: as above; conditions: g of AS/ha: (A) 90, (B) 1200, (C) 90, iodosulfuron 10; for activity MATCH resistant (visual scale 0-100%): resistant biotype; for activity MATCH sensitive (visual scale 0-100%): sensitive biotype
Procedure: as §1, §2, §3

[19] = test system: STEME (Stellaria media), sensitive and resistant; test: as above; conditions: g of AS/ha: (A) 90, (B) 1200, (C) 90, iodosulfuron 10; for activity STEME resistant (visual scale 0-100%): resistant biotype; for activity STEME sensitive (visual scale 0-100%): sensitive biotype
Procedure: as §1, §2, §3

[20] = test system: APESV (Apera Spica-venti); test: Greenhouse trial: different sowing depths, PE application (test method 10); conditions: g of AS/ha: (A) 90, (B) 1200, (C) 90; for activity APESV 5 mm (visual scale 0-100%): sowing depth 5 mm; for activity APESV 20 mm (visual scale 0-100%): sowing depth 20 mm
Procedure: as §1, §2, §3

[21] = test system: MATCH (Matricaria chamomilla); test: as above; conditions: g of AS/ha: (A) 90, (B) 1200, (C) 90; for activity MATCH 5 mm (visual scale 0-100%): sowing depth 5 mm; for activity MATCH 20 mm (visual scale 0-100%): sowing depth 20 mm
Procedure: as §1, §2, §3

[22] = PE application, g of AS/ha: (A) 90, (B) 1200, (C) 90
[23] = application 7 days prior to sowing, g AS/ha: (A) 90, (B) 1200, (C) 90

SMILES | activity POAAN (visual scale 0-100%) ([1]; PE application) [%] | activity STEME (visual scale 0-100%) ([2]; PE application) [%] | activity STEME (visual scale 0-100%) ([2]; incorporation into the soil) [%] | activity APESV (visual scale 0-100%) [3] [%] | activity POAAN (visual scale 0-100%) [4] [%] | activity STEME (visual scale 0-100%) [5] [%] | activity on crop HORVS (visual scale 0-100%) [6] [%] | activity AVEFA (visual scale 0-100%) [7, 22] [%] | activity AVEFA (visual scale 0-100%) [7, 23] [%] | activity LOLPE (visual scale 0-100%) [8, 22] [%] | activity LOLPE (visual scale 0-100%) [8, 23] [%] | activity on crop HORVS (visual scale 0-100%) [9] [%] | activity on crop TRZAS (visual scale 0-100%) [10] [%] | activity AVEFA (visual scale 0-100%) ([11]; irrigation from above) [%] | activity LOLSS resistant (visual scale 0-100%) [17] [%] | activity LOLSS sensitive (visual scale 0-100%) [17] [%] | activity MATCH resistant (visual scale 0-100%) [18] [%] | activity MATCH sensitive (visual scale 0-100%) [18] [%] | activity STEME resistant (visual scale 0-100%) [19] [%] | activity STEME sensitive (visual scale 0-100%) [19] [%] | further results
CC(C)N(C(=O)COc1nnc(C(F)(F)F)s1)c1ccc(F)cc1 [(A) flufenacet, N-(4-fluorophenyl)-N-(1-methylethyl)-2-[[5-(trifluoromethyl)-1,3,4-thiadiazol-2-yl]oxy]acetamide] | 70 | 0 | 20 | 60 | 60 | 30 | 40 | 63 | 70 | 75 | 80 | 80 | 40 | 85 | 10 | 85 | 30 | 30 | 0 | 0 | activity POAAN (visual scale 0-100%) ([1]; incorporation into the soil): 100%; activity AVEFA (visual scale 0-100%) ([11]; irrigation from below): 50%; activity LOLPE (visual scale 0-100%) ([12]; irrigation from above): 80%; activity LOLPE (visual scale 0-100%) ([12]; irrigation from below): 78%; activity MATCH (visual scale 0-100%) ([13]; irrigation from above): 49%; activity MATCH (visual scale 0-100%) ([13]; irrigation from below): 35%; activity LOLPE IU soil (visual scale 0-100%) [14]: 97%; activity LOLPE IU/EC73 soil (visual scale 0-100%) [14]: 75%; activity MATCH IU soil (visual scale 0-100%) [15]: 80%; Difference of the soil types, MATCH [15]: −75%; activity MATCH IU/EC73 soil (visual scale 0-100%) [15]: 5%; Difference Δ^D of the soil types, HORVS [16]: Δ^D − 10%; activity on crop HORVS IU soil (visual scale 0-100%) [16]: 10%; activity on crop HORVS IU/EC73 soil (visual scale 0-100%) [16]: 0%; activity APESV 5 mm (visual scale 0-100%) [20]: 65%; activity APESV 20 mm (visual scale 0-100%) [20]: 70%; activity MATCH 5 mm (visual scale 0-100%) [21]: 30%; activity MATCH 20 mm (visual scale 0-100%) [21]: 30%
CCCN(CCC)C(=O)SCc1ccccc1 [(B) prosulfocarb, S-(phenylmethyl) dipropylcarbamothioate] | 35 | 30 | 65 | 20 | 30 | 30 | 30 | 10 | 10 | 5 | 0 | 15 | 20 | 5 | 65 | 85 | 25 | 0 | 40 | 70 | activity AVEFA (visual scale 0-100%) ([11]; irrigation from below): 10%; activity LOLPE (visual scale 0-100%) ([12]; irrigation from above): 10%; activity LOLPE (visual scale 0-100%) ([12]; irrigation from below): 5%; activity MATCH (visual scale 0-100%) ([13]; irrigation from above): 0%; activity MATCH (visual scale 0-100%) ([13]; irrigation from below): 0%; activity LOLPE IU soil (visual scale 0-100%) [14]: 33%; activity LOLPE IU/EC73 soil (visual scale 0-100%) [14]: 0%; activity MATCH IU soil (visual scale 0-100%) [15]: 10%; Difference of the soil types, MATCH [15]: −10%; activity MATCH IU/EC73 soil (visual scale 0-100%) [15]: 0%; Difference Δ^D of the soil types, HORVS [16]: Δ^D + 3%; activity on crop HORVS IU soil (visual scale 0-100%) [16]: 0%; activity on crop HORVS IU/EC73 soil (visual scale 0-100%) [16]: 3%; activity APESV 5 mm (visual scale 0-100%) [20]: 50%; activity APESV 20 mm (visual scale 0-100%) [20]: 20%; activity MATCH 5 mm (visual scale 0-100%) [21]: 0%; activity MATCH 20 mm (visual scale 0-100%) [21]: 0%
COc1nc(C)nc(NC(=O)NS(=O)(=O)c2cc(I)ccc2C(=O)O)n1 [iodosulfuron] | – | – | – | – | – | – | – | – | – | – | – | – | – | – | 50 | 98 | 60 | 100 | 40 | 90 | –
